#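 Where inhibition never reached the appropriate level, the endpoint shown equals the highest concentration tested. Otherwise, values were interpolated linearly from a five-concentration, 48-hour dose response in 96-well plates. Abbreviation: GI50, concentration required for 50% inhibition of growth. TGI is the concentration that stops growth completely.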
# Experiments:
# Assay in all cases: growth of human tumour cells (NCI), 48 h
# [1] = tested on: OVCAR-5 ovarian
# [2] = tested on: NCI-H460 lung
# [3] = tested on: TK-10 renal
# [4] = tested on: RXF 393 renal
# [5] = tested on: NCI-H226 lung
# [6] = tested on: HOP-62 NSCLC
# [7] = tested on: PC-3 prostate
# [8] = tested on: SK-MEL-5 melanoma
# [9] = tested on: NCI-H23 lung
# [10] = tested on: LOX IMVI melanoma
# [11] = tested on: OVCAR-4 ovarian
# [12] = tested on: UACC-257 melanoma
# [13] = tested on: OVCAR-8 ovarian
# [14] = tested on: HOP-92 NSCLC
# [15] = tested on: CCRF-CEM leukemia
# [16] = tested on: RPMI-8226 leukemia
# [17] = tested on: NCI-H522 lung
# [18] = tested on: EKVX NSCLC
# [19] = tested on: SK-OV-3 ovarian
# [20] = tested on: HCT-116 colon
# [21] = tested on: M14 melanoma
# [22] = tested on: 786-0 renal
# [23] = tested on: SW-620 colon
# [24] = tested on: U251 CNS
# [25] = tested on: SR leukemia
# [26] = tested on: KM12 colon
# [27] = tested on: SK-MEL-2 melanoma
# [28] = tested on: HCT-15 colon
# [29] = tested on: SF-295 CNS
# [30] = tested on: CAKI-1 renal
# [31] = tested on: MOLT-4 leukemia
# [32] = tested on: A549 NSCLC
# [33] = tested on: HT29 colon
# [34] = tested on: OVCAR-3 ovarian
# [35] = tested on: SN12C renal
# [36] = tested on: HS 578T breast
# [37] = tested on: SNB-75 CNS
# [38] = tested on: SNB-19 CNS
# [39] = tested on: BT-549 breast
# [40] = tested on: SF-539 CNS
# [41] = tested on: T-47D breast
# [42] = tested on: SF-268 CNS
# [43] = tested on: SK-MEL-28 melanoma
# [44] = tested on: MCF7 breast
# [45] = tested on: HL-60(TB) leukemia
# [46] = tested on: ACHN renal
# [47] = tested on: DU-145 prostate
# [48] = tested on: MDA-MB-435
# [49] = tested on: MALME-3M melanoma
# [50] = tested on: IGROV1 ovarian
# [51] = tested on: UO-31 renal
# [52] = tested on: HCC-2998 colon
# [53] = tested on: NCI/ADR-RES ovarian
# [54] = tested on: COLO 205 colon
# [55] = tested on: UACC-62 melanoma
# [56] = tested on: MDA-MB-231 breast
# [57] = tested on: A498 renal
# [58] = tested on: K-562 leukemia
compound,measurement,setting,value
O=[N+]([O-])c1cc(F)c2cccnc2c1O,GI50,[1],35.8 µM
same,TGI,[1],> 100 µM
same,GI50,[2],3.83 µM
same,TGI,[2],30.5 µM
same,GI50,[3],14.9 µM
same,TGI,[3],> 100 µM
same,GI50,[4],17.5 µM
same,TGI,[4],76.3 µM
same,GI50,[5],30.5 µM
same,TGI,[5],> 100 µM
same,GI50,[6],13.6 µM
same,TGI,[6],> 100 µM
same,GI50,[7],4.47 µM
same,TGI,[7],> 100 µM
same,GI50,[8],16.5 µM
same,TGI,[8],73.7 µM
same,GI50,[9],7.73 µM
same,TGI,[9],> 100 µM
same,GI50,[10],4630 nM
same,TGI,[10],> 100 µM
same,GI50,[11],6.63 µM
same,TGI,[11],65.5 µM
same,GI50,[12],15.5 µM
same,TGI,[12],58.8 µM
same,GI50,[13],11.3 µM
same,TGI,[13],> 100 µM
same,GI50,[14],2.84 µM
same,TGI,[14],9.01 µM
same,GI50,[15],3.46 µM
same,TGI,[15],26.7 µM
same,GI50,[16],4.05 µM
same,TGI,[16],24.3 µM
same,GI50,[17],4.01 µM
same,TGI,[17],26 µM
same,GI50,[18],22.9 µM
same,TGI,[18],> 100 µM
same,GI50,[19],26.3 µM
same,TGI,[19],> 100 µM
same,GI50,[20],6.93 µM
same,TGI,[20],> 100 µM
same,GI50,[21],7.56 µM
same,TGI,[21],40.9 µM
same,GI50,[22],10.2 µM
same,TGI,[22],94.6 µM
same,GI50,[23],3.44 µM
same,TGI,[23],> 100 µM
same,GI50,[24],4.9 µM
same,TGI,[24],90.3 µM
same,GI50,[25],1960 nM
same,TGI,[25],6.96 µM
same,GI50,[26],7.95 µM
same,TGI,[26],> 100 µM
same,GI50,[27],10.1 µM
same,TGI,[27],94.4 µM
same,GI50,[28],6.73 µM
same,TGI,[28],> 100 µM
same,GI50,[29],3.77 µM
same,TGI,[29],86.6 µM
same,GI50,[30],3.82 µM
same,TGI,[30],25.8 µM
same,GI50,[31],2430 nM
same,TGI,[31],11 µM
same,GI50,[32],6.94 µM
same,TGI,[32],> 100 µM
same,GI50,[33],4.55 µM
same,TGI,[33],20.7 µM
same,GI50,[34],3.93 µM
same,TGI,[34],> 100 µM
same,GI50,[35],22.1 µM
same,TGI,[35],> 100 µM
same,GI50,[36],35.8 µM
same,TGI,[36],> 100 µM
same,GI50,[37],4 µM
same,TGI,[37],> 100 µM
same,GI50,[38],9.24 µM
same,TGI,[38],> 100 µM
same,GI50,[39],19 µM
same,TGI,[39],> 100 µM
same,GI50,[40],13.6 µM
same,TGI,[40],> 100 µM
same,GI50,[41],21.2 µM
same,TGI,[41],> 100 µM
same,GI50,[42],6.21 µM
same,TGI,[42],> 100 µM
same,GI50,[43],21.2 µM
same,TGI,[43],> 100 µM
same,GI50,[44],17.4 µM
same,TGI,[44],74.9 µM
same,GI50,[45],2480 nM
same,TGI,[45],8.12 µM
same,GI50,[46],6.06 µM
same,TGI,[46],79.7 µM
same,GI50,[47],6.28 µM
same,TGI,[47],> 100 µM
same,GI50,[48],15 µM
same,TGI,[48],> 100 µM
same,GI50,[49],3.89 µM
same,TGI,[49],28.8 µM
same,GI50,[50],2.5 µM
same,TGI,[50],14.7 µM
same,GI50,[51],2.34 µM
same,TGI,[51],18.2 µM
same,GI50,[52],10.6 µM
same,TGI,[52],> 100 µM
same,GI50,[53],3.61 µM
same,TGI,[53],45.3 µM
same,GI50,[54],16.2 µM
same,TGI,[54],54.2 µM
same,GI50,[55],11 µM
same,TGI,[55],55.6 µM
same,GI50,[56],25.8 µM
same,TGI,[56],> 100 µM
same,GI50,[57],6.84 µM
same,TGI,[57],42.4 µM
Cn1ncc(-c2ccc3c(=O)[nH]nc(CN)c3c2)c1-c1c(F)cc2ccccc2c1C#N,GI50,[1],11.3 µM
same,TGI,[1],29.4 µM
same,GI50,[2],3.67 µM
same,TGI,[2],14.6 µM
same,GI50,[3],10.7 µM
same,TGI,[3],24.1 µM
same,GI50,[4],4.6 µM
same,TGI,[4],16.6 µM
same,GI50,[5],7.69 µM
same,TGI,[5],24.3 µM
same,GI50,[6],6.31 µM
same,TGI,[6],20.3 µM
same,GI50,[7],8.21 µM
same,TGI,[7],23.6 µM
same,GI50,[8],11 µM
same,TGI,[8],22.9 µM
same,GI50,[10],1320 nM
same,TGI,[10],4.11 µM
same,GI50,[11],7.67 µM
same,TGI,[11],25.2 µM
same,GI50,[12],7.28 µM
same,TGI,[12],20.8 µM
same,GI50,[13],4.34 µM
same,TGI,[13],17.5 µM
same,GI50,[14],4.06 µM
same,TGI,[14],18.1 µM
same,GI50,[15],10.7 µM
same,TGI,[15],57.3 µM
same,GI50,[16],4.78 µM
same,TGI,[16],27.4 µM
same,GI50,[17],4.17 µM
same,TGI,[17],17.7 µM
same,GI50,[18],11.9 µM
same,TGI,[18],25.1 µM
same,GI50,[19],13.6 µM
same,TGI,[19],26.8 µM
same,GI50,[20],3.69 µM
same,TGI,[20],14.5 µM
same,GI50,[21],6.97 µM
same,TGI,[21],21.1 µM
same,GI50,[22],5.21 µM
same,TGI,[22],18.9 µM
same,GI50,[23],3.05 µM
same,TGI,[23],15.1 µM
same,GI50,[24],5.36 µM
same,TGI,[24],17.9 µM
same,GI50,[25],1100 nM
same,TGI,[25],13.1 µM
same,GI50,[26],5 µM
same,TGI,[26],17.4 µM
same,GI50,[27],4.63 µM
same,TGI,[27],16.3 µM
same,GI50,[28],4.92 µM
same,TGI,[28],19.1 µM
same,GI50,[58],3.41 µM
same,TGI,[58],38.3 µM
same,GI50,[29],11.7 µM
same,TGI,[29],24.6 µM
same,GI50,[30],5.53 µM
same,TGI,[30],19 µM
same,GI50,[31],2290 nM
same,TGI,[31],12.6 µM
same,GI50,[32],5.14 µM
same,TGI,[32],18.3 µM
same,GI50,[33],3.34 µM
same,TGI,[33],14.5 µM
same,GI50,[34],6.53 µM
same,TGI,[34],19.5 µM
same,GI50,[35],7.53 µM
same,TGI,[35],20.8 µM
same,GI50,[36],8.18 µM
same,TGI,[36],28.7 µM
same,GI50,[37],4.44 µM
same,TGI,[37],19.5 µM
same,GI50,[38],9.44 µM
same,TGI,[38],24.1 µM
same,GI50,[39],7.15 µM
same,TGI,[39],20.2 µM
same,GI50,[40],7.6 µM
same,TGI,[40],20.8 µM
same,GI50,[41],3.48 µM
same,TGI,[41],17.6 µM
same,GI50,[42],4.74 µM
same,TGI,[42],20.6 µM
same,GI50,[43],10.6 µM
same,TGI,[43],23 µM
same,GI50,[44],1.52 µM
same,TGI,[44],12.6 µM
same,GI50,[45],3420 nM
same,TGI,[45],18.2 µM
same,GI50,[46],4.07 µM
same,TGI,[46],16.5 µM
same,GI50,[47],8.59 µM
same,TGI,[47],21.1 µM
same,GI50,[48],3.72 µM
same,TGI,[48],14.5 µM
same,GI50,[49],4.57 µM
same,TGI,[49],17.6 µM
same,GI50,[50],4.63 µM
same,TGI,[50],19.7 µM
same,GI50,[51],7.62 µM
same,TGI,[51],20.6 µM
same,GI50,[52],8.63 µM
same,TGI,[52],20.8 µM
same,GI50,[53],12.7 µM
same,TGI,[53],50.5 µM
same,GI50,[54],4.8 µM
same,TGI,[54],18.3 µM
same,GI50,[55],10.2 µM
same,TGI,[55],23.6 µM
same,GI50,[56],8.53 µM
same,TGI,[56],23.4 µM
same,GI50,[57],11.7 µM
same,TGI,[57],23.9 µM
